Tests used:
[1] = tested on: IL-2 production by activated CD4+ T cells; experiment: Inhibition of IL-2 production by activated CD4+ T cells (flow cytometry); assay type: cell-based; details: mouse spleen cells activated with ConA, anti-CD3/CD28 for 4 hours
Description: Total spleen cells were isolated from C57/B 6 mice and then were preactivated with ConA (1 ug/mL, Sigma-Aldrich, St. Louis, Mo.) for 2 days. These cells were then treated for 4 hours with cross-linked Hamster anti-mouse CD3/CD28 (1 ug/mL, BD Bioscience) antibodies in the Bruff's Medium containing 5% fetal bovine serum and 1× brefeldin A. After the activation, cells were fixed and analyzed for IL-2 production in the activated CD4± T cells using APC-conjugated anti-mouse IL-2 and PE-conjugated anti-mouse CD4 antibodies by flow cytometry.

[2] = tested on: Botrytis cinerea; experiment: Minimum inhibitory concentration (MIC), 24-well plate, potato dextrose broth; assay type: cell-based
Description: (§1) All plant pathogenic fungi used in the bioassay test system were obtained from Drs. Don Mathre and Nina Zidak of the MSU Department of Plant Sciences. All fungi were grown on potato dextrose agar (PDA) at 23° C. and only freshly transferred cultures (4-7 days old) were used in the fungal bioassay tests.
(§2) Assays were performed in sterile 24-well plates with each well containing 500 μl of potato dextrose broth. The plates were incubated from 48-288 hours at 25 C. The MIC was defined as the minimum concentration of compound resulting in no visible growth of the test organism. The compounds were dissolved in methanol which represented less than 0.5% total methanol in each test well. Several small plugs of agar 3×3×3 mm containing actively growing test fungi were then placed into each well with some wells serving as controls.

[3] = tested on: Rhizoctonia solani; experiment: as above; assay type: cell-based
Description: as §1, §2

[4] = tested on: Trichoderma virde; experiment: as above; assay type: cell-based
Description: as §1, §2

[5] = tested on: Pythium ultimum; experiment: as above; assay type: cell-based
Description: as §1, §2

[6] = tested on: Sclerotinia sclerotiorum; experiment: as above; assay type: cell-based
Description: as §1, §2

[7] = tested on: Fusarium solani; experiment: as above; assay type: cell-based
Description: as §1, §2

[8] = tested on: Geotrichum canididum; experiment: as above; assay type: cell-based
Description: as §1, §2

[9] = tested on: Aspergillus fumigatus; experiment: as above; assay type: cell-based
Description: as §1, §2

[10] = tested on: human peripheral blood mononuclear cells (PBMCs); experiment: Toxicity to peripheral blood mononuclear cells (7-AAD / Annexin V flow cytometry); details: 24 and 48 hours of culture, versus DMSO controls; cyclosporin result at or above Bug/ml
Description: The cells (PBMCs) were then stained with 7-AAD and Annexin V directly conjugated to FITC or PE and subjected to flow cytometry. The percentage of necrotic (7-AAD+/Annexin V+), apoptotic (7-AAD-/Annexin V+) and viable (7-AAD-/Annexin V−) cells were calculated using CellQuest software (BD Biosciences). […] Error bars represent standard deviations between triplicate treatment groups.
Blood was collected from healthy adult donors and peripheral blood mononuclear cells (PBMCs) were purified using Histopaque 1077 (Sigma Aldrich, St. Louis, Mo.) according to the manufacturer's instructions. […] Cells were washed twice with PBS followed by staining with Annexin V directly conjugated to PE or FITC and 7-AAD using the Annexin V Apoptosis Detection Kit I (BD Biosciences, San Jose, Calif.) as per the manufacturer's instructions. Cells were then subjected to flow cytometry on a FACS Calibur equipped with an HTS loader (BD Biosciences, San Jose, Calif.). The staining allowed for differentiation among viable, necrotic and apoptotic cells. The studies were repeated at least three times and the variation between the dead cells detected was recorded as a function of concentration over 24 and 48 hour test periods.

## cyclic lipopeptide with a molecular mass of 1127.7 produced by C. dematium fungus CR-12; contains Val-Ile-Ser-Ile [Colutellin A, colutellin A]
[1]
  IC50: 0.167 µM
[2]; after 48 h
  MIC: 3.6 µg/mL
[2]; after 144 h
  MIC: 10.8 µg/mL
[2]; after 288 h
  MIC: 10.8 µg/mL
[3]; after 48 h
  MIC: >100 µg/mL
[3]; after 144 h
  MIC: >100 µg/mL
[3]; after 288 h
  MIC: >100 µg/mL
[4]; after 48 h
  MIC: >100 µg/mL
[4]; after 144 h
  MIC: >100 µg/mL
[4]; after 288 h
  MIC: >100 µg/mL
[5]; after 48 h
  MIC: >100 µg/mL
[5]; after 144 h
  MIC: >100 µg/mL
[5]; after 288 h
  MIC: >100 µg/mL
[6]; after 48 h
  MIC: 3.6 µg/mL
[6]; after 144 h
  MIC: 10.8 µg/mL
[6]; after 288 h
  MIC: 32.4 µg/mL
[7]; after 48 h
  MIC: 7.2 µg/mL
[7]; after 144 h
  MIC: >100 µg/mL
[7]; after 288 h
  MIC: >100 µg/mL
[8]; after 48 h
  MIC: 3.6 µg/mL
[8]; after 144 h
  MIC: >100 µg/mL
[8]; after 288 h
  MIC: >100 µg/mL
[9]; after 48 h
  MIC: 2.4 µg/mL
[9]; after 144 h
  MIC: >100 µg/mL
[9]; after 288 h
  MIC: >100 µg/mL
[10]
  Cytotoxicity on human PBMCs (necrosis and apoptosis): did not induce significant cell death above the DMSO controls at any concentration tested
